Experimental data published in the supplement of paper PMC11061612.

Assays:
[1] = tested on: CAL-120 (Breast Carcinoma); assay: Bliss excess, mean over the matrix (fraction); higher = more synergy
Outline: (§1)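 After 24 hours at 37°C and 5% CO2 in 1536-well plates, cells in DMEM/F12 or RPMI plus 10% FBS received two-drug dose matrices for 72 hours. Viability came from CellTiter-Glo 2.0 luminescence and was scaled as inhibition, anchored at 0 by vehicle wells and at 1 by blank wells. Combination Emax is taken as the second-highest inhibition in the matrix, and Bliss excess as the observed combination effect less EA + EB − EA·EB, with EA and EB the single-agent effects.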

WM793B (Melanoma) [2] = assay: as above
Outline: as §1

[3] = tested on: HCT-15 (Colorectal Carcinoma); assay: as above
Outline: as §1

[4] = tested on: FADU (Head and Neck Carcinoma); assay: as above
Outline: as §1

[5] = tested on: GP5d (Colorectal Carcinoma); assay: as above
Outline: as §1

[6] = tested on: HEC-1 (Endometrial Carcinoma); assay: as above
Outline: as §1

[7] = tested on: NCI-H446 (Small Cell Lung Carcinoma); assay: as above
Outline: as §1

LN-229 (Glioblastoma) [8] = assay: as above
Outline: as §1

[9] = tested on: LXF-289 (Lung Adenocarcinoma); assay: as above
Outline: as §1

[10] = tested on: 23132-87 (Gastric Carcinoma); assay: as above
Outline: as §1

SF268 (Low Grade Glioma) [11] = assay: as above
Outline: as §1

A2058 (Melanoma) [12] = assay: as above
Outline: as §1

GB-1 (Glioblastoma) [13] = assay: as above
Outline: as §1

[14] = tested on: OAW-42 (Ovarian Carcinoma); assay: as above
Outline: as §1

[15] = tested on: KE-37 (T-Lymphoblastic Leukemia); assay: as above
Outline: as §1

[16] = tested on: LB996-RCC (Kidney Carcinoma); assay: as above
Outline: as §1

[17] = tested on: NCI-H23 (Lung Adenocarcinoma); assay: as above
Outline: as §1

[18] = tested on: SU-DHL-10 (B-Cell Non-Hodgkin's Lymphoma); assay: as above
Outline: as §1

WM278 (Melanoma) [19] = assay: as above
Outline: as §1

[20] = tested on: RERF-GC-1B (Gastric Carcinoma); assay: as above
Outline: as §1

[21] = tested on: RERF-LC-Sq1 (Squamous Cell Lung Carcinoma); assay: as above
Outline: as §1

[22] = tested on: CAL-120 (Breast Carcinoma); assay: combination Emax (second highest fraction inhibited in the dose matrix, 72 h); higher = more inhibition; extreme values may be limits of the assay
Outline: as §1

WM793B (Melanoma) [23] = assay: as above
Outline: as §1

[24] = tested on: HCT-15 (Colorectal Carcinoma); assay: as above
Outline: as §1

[25] = tested on: FADU (Head and Neck Carcinoma); assay: as above
Outline: as §1

[26] = tested on: GP5d (Colorectal Carcinoma); assay: as above
Outline: as §1

[27] = tested on: HEC-1 (Endometrial Carcinoma); assay: as above
Outline: as §1

[28] = tested on: NCI-H446 (Small Cell Lung Carcinoma); assay: as above
Outline: as §1

LN-229 (Glioblastoma) [29] = assay: as above
Outline: as §1

[30] = tested on: LXF-289 (Lung Adenocarcinoma); assay: as above
Outline: as §1

[31] = tested on: 23132-87 (Gastric Carcinoma); assay: as above
Outline: as §1

SF268 (Low Grade Glioma) [32] = assay: as above
Outline: as §1

A2058 (Melanoma) [33] = assay: as above
Outline: as §1

GB-1 (Glioblastoma) [34] = assay: as above
Outline: as §1

[35] = tested on: OAW-42 (Ovarian Carcinoma); assay: as above
Outline: as §1

[36] = tested on: KE-37 (T-Lymphoblastic Leukemia); assay: as above
Outline: as §1

[37] = tested on: LB996-RCC (Kidney Carcinoma); assay: as above
Outline: as §1

[38] = tested on: NCI-H23 (Lung Adenocarcinoma); assay: as above
Outline: as §1

[39] = tested on: SU-DHL-10 (B-Cell Non-Hodgkin's Lymphoma); assay: as above
Outline: as §1

WM278 (Melanoma) [40] = assay: as above
Outline: as §1

[41] = tested on: RERF-GC-1B (Gastric Carcinoma); assay: as above
Outline: as §1

[42] = tested on: RERF-LC-Sq1 (Squamous Cell Lung Carcinoma); assay: as above
Outline: as §1
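For Bliss excess, mean over the matrix in this document: after 72 h of two-drug dosing.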

COc1nnc2ccc(N3CCC(c4ccc(OCCN5CCN(C)C(=O)[C@H]5C)cc4)CC3)nn12 [AZD5153] + CN(CC[C@H](CSC1=CC=CC=C1)NC2=C(C=C(C=C2)S(=O)(=O)NC(=O)C3=CC=C(C=C3)N4CCC(CC4)[C@H](C5=CC=CC=C5C6=CC=C(C=C6)Cl)O)S(=O)(=O)C(F)(F)F)CCO [AZD4320] (first compound max 1 µM, 7x7, partner max 1 µM)
Bliss excess [1]: 0.0415 | Bliss excess (WM793B (Melanoma) [2]): -0.0257 | Bliss excess [3]: -0.0035 | Bliss excess [4]: 0.0146 | Bliss excess [5]: 0.0199 | Bliss excess [6]: 0.0486 | Bliss excess [7]: 0.107 | Bliss excess (LN-229 (Glioblastoma) [8]): 0.0357 | Bliss excess [9]: 0.0194 | Bliss excess [10]: -0.0551 | Bliss excess (SF268 (Low Grade Glioma) [11]): -0.0183 | Bliss excess (A2058 (Melanoma) [12]): -0.0062 | Bliss excess (GB-1 (Glioblastoma) [13]): 0.0003 | Bliss excess [14]: 0.0913 | Bliss excess [15]: 0.0222 | Bliss excess [16]: 0.0253 | Bliss excess [17]: -0.0027 | Bliss excess [18]: -0.0269 | Bliss excess (WM278 (Melanoma) [19]): 0.0168 | Bliss excess [20]: 0.014 | Bliss excess [21]: 0.0113 | combination Emax [22]: 0.919 | combination Emax (WM793B (Melanoma) [23]): 0.508 | combination Emax [24]: 0.81 | combination Emax [25]: 0.45 | combination Emax [26]: 0.727 | combination Emax [27]: 0.983 | combination Emax [28]: 0.984 | combination Emax (LN-229 (Glioblastoma) [29]): 0.335 | combination Emax [30]: 0.667 | combination Emax [31]: 0.349 | combination Emax (SF268 (Low Grade Glioma) [32]): 0.552 | combination Emax (A2058 (Melanoma) [33]): 0.577 | combination Emax (GB-1 (Glioblastoma) [34]): 0.292 | combination Emax [35]: 0.41 | combination Emax [36]: 1 | combination Emax [37]: 0.539 | combination Emax [38]: 0.766 | combination Emax [39]: 1 | combination Emax (WM278 (Melanoma) [40]): 0.829 | combination Emax [41]: 0.813 | combination Emax [42]: 0.706
